Results from ChEMBL document CHEMBL1201862, “PubChem BioAssay data set” (2004).
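Growth conditions: 96-well plates. Treatment: test compound, 48 hours, 5 concentrations. Analysis: linear interpolation between bracketing concentrations; unreached endpoints set to highest concentration. GI50 is the concentration that inhibits growth by half.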 Activity calls are given as the source filed them. No stated cut-off is given here; in the data, active = GI50 up to about 1.1 µM and inactive = higher.

Assays:
Assay in all cases: inhibition of tumour cell growth, NCI panel, 48 h
[1] = tested on: SF-295
[2] = tested on: SK-MEL-2
[3] = tested on: U-251
[4] = tested on: MDA-MB-435
[5] = tested on: HT-29
[6] = tested on: NCI-H23
[7] = tested on: HOP-62
[8] = tested on: BT-549
[9] = tested on: SK-MEL-5
[10] = tested on: LOX IMVI
[11] = tested on: MOLT-4
[12] = tested on: TK-10
[13] = tested on: SF-268
[14] = tested on: HCC 2998
[15] = tested on: OVCAR-5
[16] = tested on: RXF 393
[17] = tested on: MDA-MB-231
[18] = tested on: ACHN
[19] = tested on: NCI-H226
[20] = tested on: MCF7

Structure (SMILES) | GI50 [1] | GI50 [2] | GI50 [3] | GI50 [4] | GI50 [5] | GI50 [6] | GI50 [7] | GI50 [8] | GI50 [9] | GI50 [10] | GI50 [11] | GI50 [12] | GI50 [13] | GI50 [14] | GI50 [15] | GI50 [16] | GI50 [17] | GI50 [18] | GI50 [19] | GI50 [20]
c1ccc(C(OCCN2CC3CCC(C2)N3)c2ccccc2)cc1 | 83 µM (inactive) | 76.7 µM (inactive) | > 100 µM (inactive) | 35.9 µM (inactive) | 31.6 µM (inactive) | > 100 µM (inactive) | > 100 µM (inactive) | 22 µM (inactive) | 18.5 µM (inactive) | 66.4 µM (inactive) | 74.8 µM (inactive) | > 100 µM (inactive) | > 100 µM (inactive) | 17.8 µM (inactive) | > 100 µM (inactive) | 43.8 µM (inactive) | > 100 µM (inactive) | > 100 µM (inactive) | 45 µM (inactive) | 48.6 µM (inactive)
COC(=O)c1nc2n(n1)-c1ccccc1C(=O)N(Cc1ccccc1)C2 | > 100 µM (inactive) | > 100 µM (inactive) | > 100 µM (inactive) | > 100 µM (inactive) | > 100 µM (inactive) | > 100 µM (inactive) | > 100 µM (inactive) | > 100 µM (inactive) | > 100 µM (inactive) | > 100 µM (inactive) | > 100 µM (inactive) | > 100 µM (inactive) | > 100 µM (inactive) | 40.4 µM (inactive) | > 100 µM (inactive) | > 100 µM (inactive) | > 100 µM (inactive) | > 100 µM (inactive) | > 100 µM (inactive) | > 100 µM (inactive)
CCCCCCCCCCCCCC[C@@H](O)[C@H]1CC[C@H]([C@H]2CC[C@H]([C@H](O)CCCCCC[C@@H](O)CC3=C[C@H](C)OC3=O)O2)O1 | > 25 µM (inactive) | > 25 µM (inactive) | > 25 µM (inactive) | > 25 µM (inactive) | 1.7 µM (inactive) | 1.2 µM (inactive) | > 25 µM (inactive) | > 25 µM (inactive) | 0.117 µM (active) | 1.22 µM (inactive) |  | > 25 µM (inactive) | > 25 µM (inactive) | > 25 µM (inactive) | > 25 µM (inactive) | > 25 µM (inactive) | > 25 µM (inactive) | > 25 µM (inactive) | > 25 µM (inactive) | > 15.3 µM (inactive)
CC1CCc2sc3nc4n(c(=O)c3c2C1)CC(C)S4 (centres undefined) | 14.3 µM (inactive) | 19.5 µM (inactive) | 25.6 µM (inactive) | 34.4 µM (inactive) | 15.8 µM (inactive) | 25.3 µM (inactive) | 32.7 µM (inactive) | 27.5 µM (inactive) | 18.9 µM (inactive) | 20.9 µM (inactive) |  | 25.1 µM (inactive) | 33.6 µM (inactive) | 19.7 µM (inactive) | 27 µM (inactive) | 15.4 µM (inactive) | 20.4 µM (inactive) | 24.9 µM (inactive) | 21.8 µM (inactive) | 24 µM (inactive)
CCOC(=O)[C@@H](Cc1ccc(CCl)cc1)NC(C)=O | 32.8 µM (inactive) | 17.1 µM (inactive) | 19.6 µM (inactive) | 19.9 µM (inactive) | 75.3 µM (inactive) | 25 µM (inactive) | 23.9 µM (inactive) | 31.1 µM (inactive) | 16 µM (inactive) | 19 µM (inactive) | 29.2 µM (inactive) | 4.71 µM (inactive) | 24 µM (inactive) | 17.7 µM (inactive) | 20.6 µM (inactive) | 14 µM (inactive) | 27.1 µM (inactive) | 20.5 µM (inactive) | 28.1 µM (inactive) | 26.1 µM (inactive)
Nc1nc(N)c2cc(CNc3ccc(C(=O)NC(CC(=O)O)C(=O)O)c(Cl)c3)ccc2n1 (centres undefined) | 0.0698 µM (active) | 15 µM (inactive) | 0.0556 µM (active) | < 0.01 µM (active) | < 0.0143 µM (active) | 0.117 µM (active) |  | 25.8 µM (inactive) | 0.162 µM (active) | < 0.01 µM (active) | 0.0175 µM (active) | 0.0803 µM (active) | 0.0582 µM (active) | 1.43 µM (inactive) | 0.191 µM (active) | 61 µM (inactive) | 337 µM (inactive) | 0.0253 µM (active) | > 21.6 µM (inactive) | 0.0507 µM (active)
C=C1C(O)C2(O)OCC34C(CC5C(C)=CC(=O)C(O)C5(C)C23)OC(=O)C(OC(=O)C/C=C(\C)CCCCC)C14 (centres undefined) | 0.0125 µM (active) | 0.0251 µM (active) | 0.0125 µM (active) | < 0.001 µM (active) | 0.0141 µM (active) | 0.0147 µM (active) | 0.0148 µM (active) | < 0.001 µM (active) |  |  | 0.0125 µM (active) | 0.00177 µM (active) | 0.0152 µM (active) | 0.0136 µM (active) | 0.0231 µM (active) | 0.0152 µM (active) | 0.00315 µM (active) | < 0.001 µM (active) | 0.0144 µM (active) | 0.0125 µM (active)
COc1cccc(/N=N/C(=N/NC(=O)c2cc(Cl)ccc2O)c2ccc(N(CCC#N)CCC#N)cc2C)c1 | 37.3 µM (inactive) | 57 µM (inactive) | 38.3 µM (inactive) | 64.4 µM (inactive) | 5.85 µM (inactive) | 35 µM (inactive) | 66.5 µM (inactive) | 34.3 µM (inactive) | 29.9 µM (inactive) |  | 19.1 µM (inactive) | 48.8 µM (inactive) | 47.1 µM (inactive) | 23.6 µM (inactive) | > 100 µM (inactive) | 38.1 µM (inactive) | 35.1 µM (inactive) | 46.3 µM (inactive) | 26.2 µM (inactive) | 7.8 µM (inactive)
CCN(CCO)CC1CCCC2CCCCC21 (centres undefined) | > 100 µM (inactive) | > 100 µM (inactive) | > 100 µM (inactive) | > 100 µM (inactive) | > 100 µM (inactive) | > 100 µM (inactive) | > 100 µM (inactive) | > 100 µM (inactive) | > 100 µM (inactive) |  |  | > 100 µM (inactive) | > 100 µM (inactive) | > 100 µM (inactive) | > 100 µM (inactive) | > 100 µM (inactive) | > 100 µM (inactive) | > 100 µM (inactive) | > 100 µM (inactive) | > 100 µM (inactive)
O=C1c2cc(Cl)ccc2N=C(NC2CCCC2)C2CSCN12 (centres undefined) | > 100 µM (inactive) | 36.2 µM (inactive) | > 100 µM (inactive) | > 100 µM (inactive) | 28.9 µM (inactive) |  | > 100 µM (inactive) | > 100 µM (inactive) | 46.1 µM (inactive) | > 100 µM (inactive) | 33.5 µM (inactive) | > 100 µM (inactive) | 66.5 µM (inactive) | > 100 µM (inactive) | > 100 µM (inactive) | 92.9 µM (inactive) | > 100 µM (inactive) | > 100 µM (inactive) | 60 µM (inactive) | > 100 µM (inactive)
CCC(CCCN)Nc1cc(OC)cc2cccnc12 (centres undefined) | > 100 µM (inactive) | > 100 µM (inactive) |  | > 100 µM (inactive) | 32.4 µM (inactive) |  | > 100 µM (inactive) | > 100 µM (inactive) | 85.1 µM (inactive) | > 100 µM (inactive) | > 10 µM (inactive) | > 100 µM (inactive) | > 100 µM (inactive) | 22.7 µM (inactive) | > 100 µM (inactive) | 41.3 µM (inactive) | 53.5 µM (inactive) | > 100 µM (inactive) | > 100 µM (inactive) | 29.4 µM (inactive)
